Assay results: article PMC3176662 (Journal of biomolecular screening, 2011)

How the values were obtained:
[1] = molecular target: T1, Francisella tularensis GyrB (ATP binding domain) (Francisella tularensis subsp. tularensis, UniProt Q5NHE7); assay: biochemical; details: 1 h, read-out: decrease of binding of Novo-TRX to GyrB
[2] = molecular target: T1, Francisella tularensis GyrB (ATP binding domain); assay: biochemical
[3] = molecular target: E. coli gyrase A2B2 heterotetramer (Escherichia coli, UniProt P0AES6); assay: Gyrase activity; assay type: biochemical; details: 50 μM compound, 0.5 μg relaxed pHOT1 DNA, 1 h 37 °C

T1 sequence (Q5NHE7 1-805): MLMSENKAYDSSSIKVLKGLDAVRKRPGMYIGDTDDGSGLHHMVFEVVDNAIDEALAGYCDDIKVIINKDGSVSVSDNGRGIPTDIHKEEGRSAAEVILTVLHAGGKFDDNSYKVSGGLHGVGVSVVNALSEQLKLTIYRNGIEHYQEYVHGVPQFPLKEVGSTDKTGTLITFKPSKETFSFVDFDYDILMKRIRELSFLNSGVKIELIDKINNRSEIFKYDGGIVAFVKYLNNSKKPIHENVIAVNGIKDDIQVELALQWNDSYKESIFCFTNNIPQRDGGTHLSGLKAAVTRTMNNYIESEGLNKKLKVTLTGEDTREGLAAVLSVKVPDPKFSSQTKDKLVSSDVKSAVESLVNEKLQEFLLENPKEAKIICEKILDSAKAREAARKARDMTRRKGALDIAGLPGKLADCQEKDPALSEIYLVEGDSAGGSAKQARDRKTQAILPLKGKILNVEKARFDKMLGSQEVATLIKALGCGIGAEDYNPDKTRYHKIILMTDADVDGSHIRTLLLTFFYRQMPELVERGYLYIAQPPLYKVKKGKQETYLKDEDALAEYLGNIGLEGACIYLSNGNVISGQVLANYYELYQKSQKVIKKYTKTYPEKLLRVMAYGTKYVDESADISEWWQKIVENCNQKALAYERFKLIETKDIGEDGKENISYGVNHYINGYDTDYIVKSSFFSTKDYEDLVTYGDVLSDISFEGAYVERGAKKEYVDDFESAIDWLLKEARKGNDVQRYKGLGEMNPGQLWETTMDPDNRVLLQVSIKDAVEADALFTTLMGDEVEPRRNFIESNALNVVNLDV

Compound: CO[C@@H]1[C@@H](OC(N)=O)[C@@H](O)[C@H](Oc2ccc3c(O)c(NC(=O)c4ccc(O)c(CC=C(C)C)c4)c(=O)oc3c2C)OC1(C)C [novobiocin]
- inhibition at 10 µM [1]: > 40%

Compound: COc1cccc2c1C(=O)c1c(O)c3c(c(O)c1C2=O)C[C@@](O)(C(=O)CO)C[C@@H]3O[C@H]1C[C@H](N)[C@@H](O)[C@H](C)O1 [epirubicin]
- IC50 [2]: 1270 nM
- inhibition of supercoiling of relaxed DNA [3]: inhibit supercoiling to the level of the no-gyrase control

Compound: CC(=O)[C@]1(O)Cc2c(O)c3c(c(O)c2[C@@H](O[C@H]2C[C@H](N)[C@H](O)[C@H](C)O2)C1)C(=O)c1ccccc1C3=O [idarubicin]
- IC50 [2]: 1580 nM
- inhibition of supercoiling of relaxed DNA [3]: less clear

Compound: CCNC(=O)Nc1nc2cc(-c3cccnc3)cc(-c3ccccn3)c2[nH]1 [Vertex-13, N-ethyl-N′-[7-(2-pyridinyl)-5-(3-pyridinyl)-1H-benzimidazol-2-yl]-urea]
- IC50 [2]: 393 nM
- potency relative to novobiocin in the F. tularensis system (fold less potent) [2]: approximately 10 fold

Compound: COc1cccc2c1C(=O)c1c(O)c3c(c(O)c1C2=O)C[C@@](O)(C(=O)CO)C[C@@H]3O[C@H]1C[C@H](N)[C@H](O)[C@H](C)O1 [doxorubicin]
- IC50 [2]: 310 nM
- inhibition of supercoiling of relaxed DNA [3]: inhibit supercoiling to the level of the no-gyrase control

Compound: COc1cccc2c1C(=O)c1c(O)c3c(c(O)c1C2=O)C[C@@](O)(C(C)=O)C[C@@H]3O[C@H]1C[C@H](N)[C@H](O)[C@H](C)O1 [daunorubicin]
- IC50 [2]: 1460 nM
- inhibition of supercoiling of relaxed DNA [3]: less clear
